Assay [1] has as its target T1, Phosphomannomutase 2 (F119L-PMM2) (Homo sapiens, UniProt O15305, F119L).
T1 sequence (O15305 1-246 F119L): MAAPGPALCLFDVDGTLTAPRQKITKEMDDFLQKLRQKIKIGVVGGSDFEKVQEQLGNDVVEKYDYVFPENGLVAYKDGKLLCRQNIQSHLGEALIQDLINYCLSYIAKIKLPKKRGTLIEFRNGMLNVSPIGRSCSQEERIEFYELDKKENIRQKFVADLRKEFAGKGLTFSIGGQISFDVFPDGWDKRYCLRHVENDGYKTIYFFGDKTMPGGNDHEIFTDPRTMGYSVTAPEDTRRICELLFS
Put plainly: activation of purified enzyme. In kind it is biochemical.

The target of assay [2] is T2, Phosphomannomutase 2 (wt-PMM2) (Homo sapiens, UniProt O15305).
T2 sequence (O15305 1-246): T1 sequence (O15305 1-246 F119L) with L119F
Put plainly: activation of purified enzyme. In kind it is biochemical.

In assay [3] the target is T2, Phosphomannomutase 2 (wt-PMM2). Put plainly: thermal shift, size exclusion chromatography. In kind it is binding. On the technique in general: In gel filtration, larger molecules generally elute earlier.
Assay [4] shares this target. Put plainly: thermal shift assay. In kind it is binding.

The structures appear in SMILES notation. Residue numbers refer to the chain shown, from its start.

Here are results for three molecules from PMC3893156 (Molecular Genetics & Genomic Medicine, 2013).

For orientation: EC50 means the midpoint of the concentration-response curve.

For `O=P(O)(O)OC[C@H]1O[C@H](OP(=O)(O)O)[C@H](O)[C@@H](O)[C@@H]1O` [Glc-1,6-P2, glucose-1,6-bisphosphate], the EC50 in assay [1] worked out at 36 µM; in assay [2], 10 µM.
In the case of `O=P(O)(O)OC[C@H]1OC(O)[C@H](O)[C@@H](O)[C@@H]1O` (stereo partly drawn) [Glc-6-P, D-glucose 6-phosphate], in assay [3], the “thermal shift, size exclusion chromatography (dimer stabilization)” value is “Glc-1-P and Glc-6-P produce a small, but statistically significant increase of the midpoint temperature”.
For `O=P(O)(O)OC[C@H]1O[C@H](OP(=O)(O)O)[C@@H](O)[C@@H](O)[C@@H]1O` [Man-1,6-P2, mannose 1,6-bisphosphate], the thermal shift assay result in assay [4] is recorded as “Glc-1,6-P2 is slightly more effective than Man-1,6-P2 (Table S1)”.
